From patent US12234288B2, “Immunogenic arginase 2 polypeptides” (IO Biotech ApS, priority 2018, dated 2025)

What was measured:
[1] = test system: PBMCs from healthy donors and cancer patients; test: IFNγ ELISPOT of PBMCs pre-stimulated one week in vitro with peptide and low-dose IL-2; assay type: cell-based, human; conditions: for IFNy ELISPOT response: validation of hotspot region peptides, PBMCs from two healthy donors, FIG. 4
Description: For in vitro ELISPOT, PBMCs from cancer patients and healthy donors were pulsed with 20 μM of […] (or with no peptide as a control) and 120 U/ml IL-2 in 24-well plates for 7 days before being used in an ELISPOT assay. The cells were placed in 96-well nitrocellulose ELISPOT plates (MultiScreen MAIP N45; Millipore) pre-coated with IFNγ capture antibody (Mabtech). Arginase peptides added to a final concentration of 5 μM and plates incubated at 37° C. for 14-16 hours. After the incubation the cells were washed off and secondary biotinylated Ab (Mabtech, cat. 3420-{6-1000) was added for 2 hours at room temperature. Unbound secondary antibody was washed off and streptavidin conjugated alkaline phosphatase (AP) (Mabtech, cat. 3310-10) was added for 1 hour at room temperature. Unbound conjugated enzyme was washed off and the assay was developed by adding BCIP/NBT substrate (Mabtech, cat. 3650-10). Developed ELISPOT plates were analyzed on CTL ImmunoSpot S6 Ultimate-V analyzer using Immunospot software v5.1. Responses were reported as the difference between average numbers of spots in wells stimulated with arginase2 and wells without added peptide.
To test whether these peptides could be used to identify Arginase2 responses, PBMCs from 12 healthy donors and one cancer patients were screened for responses in IFNγ ELISPOT. PBMCs were stimulated with Arginase2 peptides and low dose IL-2 for 1 week prior to ELISPOT.
The entire arginase2 protein sequence was divided into overlapping 20-amino-acid-long peptides (with a final peptide of 24 amino acids), generating a library of 34 peptides covering the whole sequence (SEQ ID NOs 1-34)). Each peptide in the library overlapped with the first 10 amino acids of the following peptide. Using this arginase2 peptide library and the IFNγ ELISPOT assay, we next screened PBMCs from 6 healthy donors for spontaneous responses. The PBMCs were stimulated for one week with a pool of 3-4 adjacent 20-mer arginase2 library peptides and low-dose IL-2 (120 U/mL). They were then set up for an IFNγ ELISPOT assay to screen for responses against each 20-mer peptide separately.
PBMCs from two healthy donors were stimulated for one week with a single peptide and low-dose IL-2 (120 U/mL) before IFNy ELISPOTassay to validate the responses observed in the library screen.
PBMCs from […] were stimulated for one week with a single peptide and low-dose IL-2 (120 U/mL) before IFNy ELISPOTassay to validate the responses observed in the library screen. ARG2_1, ARG2_5, ARG2_13, ARG2_18 and ARG2_22 were tested in this validation.
ARG2_1 was used to screen for responses in 8 melanoma patients (AA07-AA31), 4 prostate cancer patients (UR07-27) and 13 healthy donors. PBMCs from each were stimulated for one week with a single peptide and low-dose IL-2 (120 U/mL) before IFNy ELISPOT assay.
PBMCs from healthy donors or cancer patients were stimulated with 10 μM of ARG2-derived peptides in vitro to enhance assay sensitivity. On day 2, IL-2 was added to a total of 120 U/ml IL-2 (Novartis). After 7 days, 4-6×10^5 PBMCs were placed at the bottom of an ELISPOT plate pre-coated with IFNy capture antibody (Mabtech). PBMCs from each donor or patient were set up in triplicates or quadruplicates for peptide (5 μM ARG2-derived peptide) and control stimulations. Cells were incubated in ELISPOT plates in the presence of an antigen for 14-16 hrs after which they were washed off and secondary biotinylated antibody (Mabtech) was added. After two hour incubation the secondary antibody was washed off before addition of streptavidin conjugated alkaline phosphatase (Mabtech) for 1 hr. Next, unbound enzyme was washed off and the assay was developed by adding BCIP/NBT subtrate (Mabtech). Developed ELISPOT plates were analyzed on CTL Immunospot S6 Ultimate-V analyzer with ImmunoSpot software, version 5.1. […]

THP-1 cells [2] = test: ARG1/ARG2 expression by RT-qPCR in THP-1 cells; assay type: cell-based, human; conditions: 48 hr stimulation, FIG. 17C/17H
Description: (§1) Cytokine stimulation with IL-4 (400 U/ml), IL-13 (50 ng/ml), IFNy (100 U/ml) or cytokine cocktail (400 U/ml IL-4, 1000 U/ml GM-CSF and 1000 U/ml TNFa) was done by seeding of 0.5-0.75×10^6 cell/mL medium supplemented with the respective cytokines and 48 hrs of incubation before cells were harvested for various experiments. All cytokines are from Trichem.
(§2) Total RNA was reverse transcribed using the High Capacity cDNA Reverse Transcription Kit (Applied Biosystems). For each reaction, 1000 ng RNA was reverse transcribed. For RT-qPCR, the cDNA was diluted 1:5 and subjected to RT-qPCR analysis using the TaqMan Gene Expression Assay on the Roche Lightcycler 480 Instrument. RT-qPCRs were run in quadruplicates and data was analyzed using the ddCT-method with normalization to expression level of the house keeping gene RPLPO and control sample. For low concentration samples that were not amplified, Ct was set to 40. No-reverse transcriptase controls (cDNA reactions setup without reverse transcriptase) served as controls of specific amplification. A list of primers used in this study is found below.
A set of three siRNA duplexes targeting ARG2 was obtained from Ambion (ARG2 Silencer Select Validated siRNA, ID s1571, s1572, s1573). siRNAs were suspended in nuclease free water to 0.1 nmol stock solutions and stored at −80° C. For ARG2 silencing experiments, THP-1 cells were prepared for electroporation as described above and 10 μl of a working solution of 0.02 nmol siRNA solution was added of each of the three siRNA before transfection as previously described. Immediately after transfection, cells were transferred to pre-warmed medium and incubated for 1 hr. Transfected cells were then split in two and to half of the cells cytokine cocktail (400 U/ml IL-4, 1000 U/ml GM-CSF and 1000 U/ml TNFa) was added. Cells were incubated in medium or medium containing cytokine cocktail for 48 hrs before they were set up in intracellular cytokine staining assay. Cells were pelleted for RNA after 48 hrs for accession of knock down efficiency by RT-qPCR.

C57BL/6 mice = test: Peptide vaccination of mice followed by murine IFNy ELISPOT of spleen cells; assay type: in vivo, mouse; conditions: for mIFNy ELISPOT response to the peptide in mice vaccinated with mArg2 P5: FIG. 13; for mIFNy ELISPOT response after vaccination: three C57 mice per peptide vaccinated s.c., 7 days, FIG. 12 / FIG. 20A
Text: 3 mice in each group are vaccinated s.c. with one of the six peptides. 7 days after, the mice are terminated, spleens are homogenised and PBMC are used for mIFNy ELISPOT.
These peptides are used for a vaccination screen (see experimental schematic in FIG. 11), where three C57 mice are vaccinated subcutaneously with one of the 6 peptides. One week later, the mice are sacrificed and the spleens homogenized to obtain PBMC. These are used to set up IFNy ELISPOT to screen for responses against both the peptide used for vaccination and the other predicted epitope peptides with overlapping sequences.
(§3) Dissolved peptides were subsequently emulsified with Montanide™ adjuvant (50ul/mouse) (Seppic Inc.) for an optimal dose of 100 ug total peptide given in a total volume of 100 ul. The emulsified peptide vaccination was injected subcutaneously at the base or the tail or the flank of 12-16 week old C57BL/6 mice with a 27G needle. Control mice were given water and Montanide™ emulsification in a total volume of 100 ul. For therapeutic vaccine studies on tumor inoculated mice, vaccinations were given at day 0 and 7 after tumor inoculation at the flank of the tail and the left flank, respectively. For epitope screening- and validation experiments, a single dose of vaccine was given to mice at the right flank. One week later, mice were sacrificed, and spleens were recovered. Spleens were smashed through a […] filter and red blood cells were lysed using Red Blood Cell Lysis Buffer (Qiagen). Cells were washed 4 times and counted before setup for murine IFNy ELISPOT assay with 8*10^6 cells pr. well.

[3] = test system: Lewis Lung (LL2) tumor cells; test: Therapeutic vaccination study in Lewis Lung (LL2) tumor inoculated mice; assay type: in vivo; conditions: LL2 tumors in C57BL/6 mice, vaccinations day 0 and day 7, compared to control, FIG. 20E-G
Description: LL2 cells (5*10^5) were resuspended in 100 ul of serum free medium and were injected subcutaneously in the right flank of female C57BL/6 mice. Tumor volumes were measured by digital caliper and the endpoint of tumor study was a tumor reaching the threshold size of 800 mm^3 or due to the formation of ulcers on the tumor.
as §3, with “well. […]” for “well.”

THP-1 cells [4] = test: Flow cytometric analysis of HLA-DR expression in THP-1 cells; assay type: cell-based, human; conditions: 48 hrs stimulation, data not shown
Description: HLA-DR expression analysis was performed on cells stimulated for 48 hrs with mock (no cytokines), IFNy (100U/ml) or cytokine cocktail (400U/m1 IL-4, 1000 U/ml GM-CSF and 1000 U/ml TNFa). Briefly, cells were washed and stained with 7-AAD (cat: 51-68981E, BD Bioscience) and FITC-conjugated mouse anti-human HLA-DR, DP, DQ (cat: 5555581, BD Bioscience) or FITC-conjugated mouse IgG1 K isotype ctrl (FC) (cat: 400109, BD Bioscience) for 30 minutes at 4° C. Excess antibody was washed off before cells were analyzed on FACSCanto™ II instrument. HLA-DR expression levels is given as the difference in MFI between MHC Class II stained live cells and isotype control stained live cells.

MONO-MAC-1 cells = test: ARG2 expression by RT-qPCR in MONO-MAC-1 cells; assay type: cell-based, human; conditions: 48 hrs incubation, FIG. 18A/B
Description: as §1, §2

Molecule: FSWIKPCISSASIVYIGLRD (listed as Homo sapiens) [ARG2_18, polypeptide derived from human Arginase2, aa181-200]
- IFNy ELISPOT response [1]: strongest and most consistent responses

Molecule: IL-13: cytokine from Trichem, used at 50 ng/ml [reference compound]
- induction of ARG2 expression (THP-1 cells [2]): did not have much effect

Molecule: LSPPNIVYI (listed as Mus musculus) [mArg2 P5, polypeptide derived from murine Arginase2, aa188-196]
- mIFNy ELISPOT response to the peptide in mice vaccinated with mArg2 P5 (C57BL/6 mice; listed as mArg2_188-196): strong mIFNy responses
- mIFNy ELISPOT response after vaccination (C57BL/6 mice): strongest and most prominent responses

Molecule: NYDIQYFSMRDIDRLGIQKV (listed as Homo sapiens) [ARG2_21, polypeptide derived from human Arginase2, aa211-230]
- IFNy ELISPOT response [1]: stronger response

Molecule: PNIVYIGL (listed as Mus musculus) [mArg2 P3, polypeptide derived from murine Arginase2, aa191-198]
- mIFNy ELISPOT response to the peptide in mice vaccinated with mArg2 P5 (C57BL/6 mice): no response or only weak responses

Molecule: SASIVYIGLRDVDPPEHFIL (listed as Homo sapiens) [ARG2-E18, polypeptide derived from human Arginase2, aa190-209]
- IFNγ ELISPOT response ([1]; hotspot peptide screen, PBMCs from 12 healthy donors and one cancer patient, FIG. 2): highest and most consistent response

Molecule: WIKPCLSPPNIVYIGL (listed as Mus musculus) [mArg2 P4, polypeptide derived from murine Arginase2, aa182-197]
- mIFNy ELISPOT response to the peptide in mice vaccinated with mArg2 P5 (C57BL/6 mice; listed as mArg2_182-197): strong mIFNy responses
- mIFNy ELISPOT response after vaccination (C57BL/6 mice): Strong immune responses
- tumor growth [3]: decreased tumor growth

B1: IL-4: cytokine from Trichem, used at 400 U/ml (protein, UniProt P05112 25-153, looked up)
Interleukin-4: HKCDITLQEIIKTLNSLTEQKTLCTELTVTDIFAASKNTTEKETFCRAATVLRQFYSHHEKDTRCLGATAQQFHRHKQLIRFLKRLDRNLWGLAGLNSCPVKEANQSTLENFLERLKTIMREKYSKCSS
- induction of ARG2 expression (THP-1 cells [2]): did not have much effect

B2: IFNy: cytokine from Trichem, used at 100 U/ml (protein, UniProt P01579 24-161, looked up)
Interferon gamma: QDPYVKEAENLKKYFNAGHSDVADNGTLFLGILKNWKEESDRKIMQSQIVSFYFKLFKNFKDDQSIQKSVETIKEDMNVKFFNSNKKKRDDFEKLTNYSVTDLNVQRKAIHELIQVMAELSPAAKTGKRKRSQMLFRG
- HLA-DR expression (THP-1 cells [4]): increase HLA-DR expression
- ARG2 expression (MONO-MAC-1 cells): did not upregulate ARG2 expression
- induction of ARG2 expression (THP-1 cells [2]): not ARG2 expression
